In experiment [1] the target is baNadD (Bacillus anthracis, UniProt C3L5T6). The experiment is described as follows: biochemical. The note with it: for inhibition at 50 µM: read-out: INHIBITION (%) B. anthracis. In kind it is biochemical.
Experiment [2] addresses ecNadD (Escherichia coli (strain K12), UniProt P0A752). The experiment is described as follows: biochemical. The class given is biochemical. Conditions: for IC50: IC50 ecNadD; for inhibition at 100 µM: read-out: INHIBITION (%) E. coli.

From patent US8785499B2 (priority 2009, dated 2014) come the findings set out here.

SMILES strings stand for the structures. Read-outs that look alike come from different tables or passages of the source.

For orientation: IC50 means the midpoint of a concentration-inhibition curve. One may read the inhibition as the change of the read-out against control, counted positive when it falls.

baNadD, sequence (C3L5T6 whole entry, looked up): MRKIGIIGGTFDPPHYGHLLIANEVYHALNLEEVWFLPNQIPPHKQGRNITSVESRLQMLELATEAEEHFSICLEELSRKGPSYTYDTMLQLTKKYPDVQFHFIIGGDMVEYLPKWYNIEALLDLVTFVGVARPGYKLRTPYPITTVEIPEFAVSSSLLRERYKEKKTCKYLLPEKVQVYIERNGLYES

`O=C(CCC(=O)Nc1cccc(Br)c1)N/N=C/c1c2ccccc2cc2ccccc12` [01_01]: the IC50 in experiment [1] (read-out: IC50 baNadD) is 4 µM. Besides, the inhibition at 50 µM in experiment [1] turned out to be 81%. Further, in experiment [2], the IC50 turned out to be 6 µM and the inhibition at 100 µM worked out at 90%.

Turning to `O=C(CCC(=O)Nc1ccccc1Br)N/N=C/c1c2ccccc2cc2ccccc12` [01_04], in experiment [1] (read-out: IC50 baNadD), the IC50 is 25 µM. Also, in experiment [1], the inhibition at 50 µM worked out at 100%. Further, in experiment [2], 15 µM corresponded to half-maximal inhibition (IC50) and the inhibition at 100 µM is 79%.

In the case of `CC(/C=N/NC(=O)CCC(=O)Nc1ccc(Br)cc1)c1ccc2ccccc2c1` (stereo not shown) [01_05], the inhibition at 50 µM in experiment [1] is 76%. In experiment [2], the IC50 was 88 µM and the inhibition at 100 µM turned out to be 78%.

In the case of `O=C(CCC(=O)Nc1ccc(I)cc1)N/N=C/c1cccc(Br)c1` [01_06], in experiment [1], the inhibition at 50 µM was determined as 54%. In addition, in experiment [2], the inhibition at 100 µM was determined as 78%.

In the case of `Cc1ccc(NC(=O)CCC(=O)N/N=C/c2cccc(Br)c2)cc1` [01_08], the inhibition at 50 µM in experiment [1] was 74%. For the same compound, the inhibition at 100 µM in experiment [2] was 75%.

As to `O=C(CCC(=O)Nc1ccc(Br)cc1)N/N=C/c1ccc(Br)cc1` [01_09], in experiment [1], the inhibition at 50 µM came to 68%. The inhibition at 100 µM in experiment [2] turned out to be 74%.

Take `O=C(CCC(=O)Nc1cccc(Br)c1)N/N=C/c1cccc(Br)c1` [01_10]: the inhibition at 50 µM in experiment [1] came out at 53%. Further, the inhibition at 100 µM in experiment [2] is 72%.

As for `COc1ccc(/C(C)=N/NC(=O)CNc2cc(Br)c(C)c(Br)c2)c(OC)c1` [01_11], the IC50 in experiment [1] (read-out: IC50 baNadD) was determined as 30 µM. Further, the inhibition at 50 µM in experiment [1] is 86%. The inhibition at 100 µM in experiment [2] stood at 70%.

In experiment [1] (IC50 baNadD), `O=C(CCC(=O)Nc1ccc(Br)cc1)N/N=C/C=C/c1ccccc1` [01_12] showed an IC50 of 48 µM. In addition, the inhibition at 50 µM in experiment [1] was 75%. The inhibition at 100 µM in experiment [2] was 68%.

For `O=C(CCC(=O)Nc1ccc(Br)cc1)N/N=C/c1cccc(Br)c1` [01_13], the IC50 in experiment [1] (read-out: IC50 baNadD) is 170 µM. Further, the inhibition at 50 µM in experiment [1] is 29%. For the same compound, the inhibition at 100 µM in experiment [2] was 67%.

Take `Cc1ccc(/C=N/NC(=O)CCC(=O)Nc2ccc(C)cc2)cc1` [01_14]: the inhibition at 50 µM in experiment [1] is 70%. In addition, the inhibition at 100 µM in experiment [2] worked out at 60%.

On to `O=C(CCC(=O)Nc1ccc(Br)cc1)N/N=C/c1ccc(F)cc1` [01_15], for which the IC50 in experiment [1] (read-out: IC50 baNadD) stood at 122 µM. Further, the inhibition at 50 µM in experiment [1] stood at 22%. Moreover, in experiment [2], the inhibition at 100 µM stood at 47%.

As for `O=C(CCC(=O)Nc1ccc(F)cc1)N/N=C/c1ccc(O)cc1` [01_16], in experiment [1], the inhibition at 50 µM came out at 29%. In addition, in experiment [2], the inhibition at 100 µM turned out to be 42%.

`O=C(CCC(=O)Nc1cccc(Br)c1)N/N=C/c1ccc(I)cc1` [01_17]: in experiment [1], the inhibition at 50 µM worked out at 35%. The inhibition at 100 µM in experiment [2] worked out at 41%.

As for `C/C(=N/NC(=O)CCC(=O)Nc1ccc(Br)cc1)c1ccc(Br)cc1` [01_18], the inhibition at 50 µM in experiment [1] was 49%. Besides, the inhibition at 100 µM in experiment [2] is 38%.

For `O=C(CCC(=O)Nc1ccccc1Cl)NN=Cc1ccc(C=NNC(=O)CCC(=O)Nc2ccccc2Cl)cc1` [1—02—1, N-(2-Chloro-phenyl)-3-(4-{[3-(2-chloro-phenylcarbamoyl)-propionyl]-hydrazonomethyl}-benzylidene-hydrazinocarbonyl)-propionamide], in experiment [1], the “baNadD inhibition (qualitative)” value is on record as “effective”; the “improvement in activity compared to precursors 1_13 and 1_15” value is on record as “more than 10 fold”. In experiment [2], the “ecNadD inhibition (qualitative)” value is given as “effective” and the IC50 amounted to 13 ± 2 µM.

For the compound `O=C(O)CNN=C(C(=O)CCC(=O)Nc1ccccc1Cl)c1ccc(C=NN(CC(=O)O)C(=O)CCC(=O)Nc2ccccc2Cl)cc1` [1—02—2, {N′-(4-{Carboxymethyl-[3-(2-chloro-phenylcarbamoyl)-propionyl]-hydrazonomethyl}-benzylidene)-N-[3-(2-chloro-phenylcarbamoyl)-propionyl]-hydrazino}-acetic acid], the “inhibitory activity against baNadD” value in experiment [1] is given as “did not inhibit”.

On to `O=C(O)CN(N=Cc1cccc2ccccc12)C(=O)CCC(=O)Nc1ccccc1Cl` [1—02—3, {N-[3-(2-Chloro-phenylcarbamoyl)-propionyl]-N′-naphthalen-1-ylmethylene-hydrazino}-acetic acid], for which the IC50 in experiment [1] (IC50 baNadD) is over 200 µM.

On to `Nc1c(C(=O)Nc2cc(F)ccc2F)sc2nc(-c3cccs3)ccc12` [03_01], for which the “INHIBITION (%) B. anthracis” value in experiment [1] turned out to be 100% 25. The IC50 in experiment [1] (IC50 baNadD) and in experiment [2] was 25 µM throughout. For the same compound, in experiment [2], the “INHIBITION (%) E. coli” value stood at 100% 25.

In turn, `Nc1c(C(=O)Nc2cc(Cl)cc(Cl)c2)sc2nc(-c3cccs3)ccc12` [03_03] gave an IC50 in experiment [1] (IC50 baNadD) of 21 µM. For the same compound, the inhibition at 50 µM in experiment [1] stood at 90%. In experiment [2], half-maximal inhibition (IC50) was put at 64 µM and the inhibition at 100 µM was 93%.

In experiment [1] (IC50 baNadD), `Nc1c(C(=O)Nc2ccc(Cl)cc2Cl)sc2nc(-c3ccncc3)ccc12` [03_04] came in with an IC50 of 21 µM. In addition, in experiment [1], the inhibition at 50 µM is 79%. Besides, in experiment [2], half-maximal inhibition (IC50) required 21 µM and the inhibition at 100 µM came out at 84%.

For the compound `Nc1c(C(=O)Nc2ccc(F)cc2)sc2nc(-c3ccncc3)ccc12` [03_06], the 50% inhibitory concentration (IC50) in experiment [1] (IC50 baNadD) was over 200 µM. The inhibition at 50 µM in experiment [1] was found to be 40%. Also, in experiment [2], the IC50 was over 200 µM and the inhibition at 100 µM was 80%.

With `Nc1c(C(=O)Nc2ccc(F)cc2F)sc2nc(-c3cccs3)ccc12` [03_07], the IC50 in experiment [1] (IC50 baNadD) is 18 µM. The inhibition at 50 µM in experiment [1] was 83%. For the same compound, in experiment [2], it took 44 µM to reach half-maximal inhibition (IC50) and the inhibition at 100 µM turned out to be 69%.

In the case of `Nc1c(C(=O)Nc2ccc(Cl)cc2)sc2nc(-c3ccc(F)cc3)ccc12` [03_08], the half-maximal inhibitory concentration (IC50) in experiment [1] (IC50 baNadD) was over 200 µM. In addition, in experiment [1], the inhibition at 50 µM is 28%. In experiment [2], the IC50 is over 200 µM and the inhibition at 100 µM was 68%.

Turning to `Nc1c(C(=O)Nc2ccc(Cl)c(Cl)c2)sc2nc(-c3cccs3)ccc12` [03_09], the inhibition at 50 µM in experiment [1] was determined as 63%. Also, the inhibition at 100 µM in experiment [2] is 60%.

Take `Nc1c(C(=O)Nc2cccc(F)c2)sc2nc(-c3ccc(F)cc3)ccc12` [03_10]: the inhibition at 50 µM in experiment [1] worked out at 60%. Moreover, the inhibition at 100 µM in experiment [2] turned out to be 56%.

In experiment [1] (IC50 baNadD), `Nc1c(C(=O)Nc2ccc(Cl)cc2Cl)sc2nc(-c3cccs3)ccc12` [03_11] displayed an IC50 of 13 µM. The inhibition at 50 µM in experiment [1] was 90%. Moreover, in experiment [2], the IC50 was found to be 30 µM and the inhibition at 100 µM is 54%.

Turning to `Nc1c(C(=O)Nc2cccc(Cl)c2)sc2nc(-c3cccs3)ccc12` [03_12], in experiment [1] (IC50 baNadD), the midpoint of inhibition, the IC50, lay at 15 µM. Moreover, the inhibition at 50 µM in experiment [1] was determined as 89%. Further, in experiment [2], the IC50 came to 71 µM and the inhibition at 100 µM was determined as 53%.

As for `Nc1c(C(=O)Nc2ccc(F)c(Cl)c2)sc2nc(-c3ccc(F)cc3)ccc12` [03_13], the inhibition at 50 µM in experiment [1] amounted to 26%. In experiment [2], the inhibition at 100 µM amounted to 52%.

Regarding `Nc1c(C(=O)Nc2ccc(F)c(F)c2)sc2nc(-c3cccs3)ccc12` [03_14], the IC50 in experiment [1] (IC50 baNadD) is 38 µM; in experiment [2] it was 117 µM. For the same compound, the inhibition at 50 µM in experiment [1] stood at 92%. Also, the inhibition at 100 µM in experiment [2] worked out at 46%.

As for `Sc1nnc(-c2ccncc2)n1-c1ccccc1Cl` [compound 042], the “[…]. coli” value in experiment [2] was 19%.

For the compound `Nc1n[nH]c(N)c1/N=N/c1ccccc1` [compound 271], in experiment [2], the “[…]. coli” value is listed as 0%.

With `Nc1n[nH]c(N)c1/N=N/c1ccccc1` [compound 272], in experiment [1], the “[…]. anthracis” value worked out at 23%.

Turning to `O=C(CCS(=O)(=O)c1ccc(Br)s1)NCc1cccs1` [compound 285], in experiment [2], the “[…]. coli” value turned out to be 0%.
